pKi: −log10 of the molar value.
target: T1, cloned human CCR8 receptor stably expressed in L1.2 cells (Homo sapiens, UniProt P51685); assay: whole cell binding screen: inhibition of biotinylated human I309 binding to CCR8 (FMAT 8100 HTS); details: Ki of compounds to inhibit I-309 binding to CCR8, L1.2/hCCR8 cells, biotinylated human I-309, 10 point concentration response starting at 10 μM
T1 construct: expressed in transfected cells
Outline: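 Ten-point dilutions, top 10 μM final, were tested for displacing biotin-I309 from hCCR8-transfected L1.2 cells in HEPES-buffered HBSS with BSA and sodium azide, mixing 0.5 h before FMAT 8100 detection. Signals converted to percent inhibition against untreated wells and a 100 nM excess unlabeled I309 control.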

T1 sequence (P51685 whole entry): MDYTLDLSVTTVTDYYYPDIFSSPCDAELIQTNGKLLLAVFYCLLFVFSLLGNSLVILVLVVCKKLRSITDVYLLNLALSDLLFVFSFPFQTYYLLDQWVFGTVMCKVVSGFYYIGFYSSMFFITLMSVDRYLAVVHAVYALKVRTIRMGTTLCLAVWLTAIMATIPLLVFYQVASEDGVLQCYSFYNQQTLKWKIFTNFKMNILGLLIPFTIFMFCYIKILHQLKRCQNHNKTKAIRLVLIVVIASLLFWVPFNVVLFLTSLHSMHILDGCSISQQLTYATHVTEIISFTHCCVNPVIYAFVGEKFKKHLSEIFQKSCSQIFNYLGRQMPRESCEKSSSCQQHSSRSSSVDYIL

Compound	pKi
Cc1ccccc1C(=O)Nc1ccc(S(=O)(=O)NC2CCN(C(=O)CO)CC2)c2ccccc12 [Compound C-121, N-{4-[1-(2—Hydroxy-acetyl)-piperidin-4-ylsuffamoyl]-naphthalen-1-yl}-2-methyl-benzamide]	> 6.30
Cc1ccccc1C(=O)Nc1ccc(S(=O)(=O)NC2CCN(C(=O)[C@@H]3CCCN3)CC2)c2ccccc12 [Compound C-125, (S)-2-Methyl-N-{4-[1-(pyrrolidine-2-carbonyl)-piperidin-4-ylsulfamoyl]-naphthalen-1-yl}-benzamide]	> 6.30

same assay, conditions: L1.2/hCCR8 cells, biotinylated human I-309, 10 point concentration response starting at 10 μM; read-out: Ki of compounds to inhibit I-309 binding to CCR8

pKi	Compound
> 6.30	CCOC(=O)N1CCC(NS(=O)(=O)c2cccc3c(C(=O)Nc4cccc(C)c4C)cccc23)CC1 [Compound H-36, 4-[5-(2,3-Dimethyl-phenylcarbamoyl)-naphthalene-1-sulfonylamno]-piperidine-1-carboxylic acid ethyl ester]
> 6.30	Cc1ccccc1C(=O)Nc1ccc(S(=O)(=O)NC2CCN(C(=O)OC(C)C)CC2)c2c1CCCC2 [Compound E-16, 4-[4-(2-Methyl-benzoylamino)-5,6,7,8-tetrahydro-naphthalene-1-sulfonylamino]-piperidine-1-carboxylic acid isopropyl ester]
> 6.30	O=C(Nc1ccc(S(=O)(=O)NC2CCCCC2)c2c1CCCC2)c1ccccc1 [Compound E-2, N-(4-Cyclohexylsulfamoyl-5,6,7,8-tetrahydro-naphthalen-1-yl)-benzamide]
> 6.00	Cc1ccccc1C(=O)NCc1ccc(S(=O)(=O)NC2CCCCC2)c2ccccc12 [Compound G-5, N-(4-Cyclohexylsulfamoyl-naphthalen-1-ylmethyl)-2-methyl-benzamide]
> 6.00	CC(C)(C)OC(=O)N1CCC(NS(=O)(=O)c2ccc(C(=O)NC3CCCCC3)c3ccccc23)CC1 [Compound F-1, 4-(4-Cyclohexylcarbamoyl-naphthalene-1-sulfonylamino)-piperidine-1-carboxylic acid tert-butyl ester]
> 6.30	CC[C@H]1CNCC[C@@H]1NS(=O)(=O)c1ccc(NC(=O)c2ccccc2C)c2ccccc12 [Compound J-47]
> 4.52	CCOC(=O)N1CCC(NS(=O)(=O)c2ccc(CNC3CCN(C)CC3)c3ccccc23)CC1 [Compound G-25, 4-{4-[(1-Methyl-piperidin-4-ylamino)-methyl]-naphthalene-1-sulfonylamino}-piperidine-1-carboxylic acid ethyl ester]
> 6.30	CCOC(=O)N1CCC(NS(=O)(=O)c2cc3c(c(NC(=O)c4ccccc4)c2)CCCC3)CC1 [Compound H-56, 4-(4-Benzoylamino-5,6,7,8-tetrahydro-naphthalene-2-sulfonylamino)-piperidine-1-carboxylic acid ethyl ester]
> 4.52	O=C(NC1CCOCC1)c1ccc(S(=O)(=O)NC2CCNCC2)c2ccccc12 [Compound F-18, 4-(Piperidin-4-ylsulfamoyl)-naphthalene-1-carboxylic acid (tetrahydro-pyran-4-yl)-amide]
> 6.30	COc1ccc(NS(=O)(=O)c2cccc3c(NC(=O)c4ccccc4)cccc23)cc1 [Compound H-1, N-[5-(4-Methoxy-phenylsulfamoyl)-naphthalen-1-yl]-benzamide]
> 6.30	Cc1ccccc1C(=O)Nc1ccc(S(=O)(=O)NC2CCCN(C(=O)N(C)C)C2)c2c1CCCC2 (racemic) [Compound E-30, (±)-3-[4-(2-Methyl-benzoylamino)-5,6,7,8-tetrahydro-naphthalene-1-sulfonylamino]-piperidine-1-carboxylic acid dimethylamide]
> 6.30	Cc1ccccc1NC(=O)c1cccc2c(S(=O)(=O)NC3CCN(C(=O)N(C)C)CC3)cccc12 [Compound H-32, 4-(5-o-Tolylcarbamoyl-naphthalene-1-sulfonylamino)-piperidine-1-carboxylic acid dimethylamide]
> 6.30	Cc1cccc(NC(=O)c2ccc(S(=O)(=O)NC3CCN(C(=O)N(C)C)CC3)c3ccccc23)c1C [Compound F-20, 4-[4-(2,3Dimethyl-phenylcarbamoyl)-naphthalene-1-sulfonylamino]-piperidine-1-carboxylic acid dimethylamide]
> 4.52	CCc1ccc(NS(=O)(=O)c2ccc3cccc(NC(=O)c4ccccc4)c3c2)cc1 [Compound H-49, N-[7-(4-Ethyl-phenylsulfamoyl)-naphthalen-1-yl]-benzamide]
> 6.30	CC[C@H]1CN(C(=O)[C@H](C)N)CC[C@@H]1NS(=O)(=O)c1ccc(NC(=O)c2ccccc2C)c2ccccc12 [Compound J-33, (3S, 4S)-N-{4-[1-(2-(S)-Amino-propionyl)-3-ethyl-piperidin-4-ylsulfamoyl]-naphthalen-1-yl}-2-methyl-benzamide]
> 6.30	Cc1ccccc1C(=O)Nc1ccc(S(=O)(=O)NC2CCN(C(=O)C(C)C)CC2)c2c1CCCC2 [Compound E-12, N-[4-(1-Isobutyryl-piperidin-4-ylsulfamoyl)-5,6,7,8-tetrahydro-naphthalen-1-yl]-2-methyl-benzamide]

More lines, now with the values behind:

Compound	pKi
CCCC(=O)N1CC[C@H](NS(=O)(=O)c2ccc(NC(=O)c3cccnc3C)c3ccccc23)[C@@H](C)C1 (racemic) [Compound D-10, (±)-(trans)-N-[4-(1-Butyryl-3-methyl-piperidin-4-ylsulfamoyl)-naphthalen-1-yl]-2-methyl-nicotinamide]	> 6.30
Cc1ccccc1C(=O)Nc1ccc(S(=O)(=O)NC2[C@@H](C)CN(Cc3ccccc3)C[C@@H]2C)c2ccccc12 (racemic) [Compound A-45, (±)-(cis, trans)-N-[4-(1-Benzyl-3,5-dimethyl-piperidin-4-ylsulfamoyl)-naphthalen-1-yl]-2-methyl-benzamide]	> 4.52
CCCC(=O)N1CCC(NS(=O)(=O)c2ccc(NC(=O)c3ccccc3Cl)c3ccccc23)CC1 [Compound C-105, N-[4-(1-Butyryl-piperidin-4-ylsulfamoyl)-naphthalen-1-yl]-2-chloro-benzamide]	> 6.30
CCOC(=O)N1CCC(NS(=O)(=O)c2ccc(NC(=O)c3cc(C)ccc3C)c3ccccc23)CC1 [Compound B-28, 4-[4-(2,5-Dimethyl-benzoylamino)-naphthalene-1-sulfonylamino]-piperidine-1-carboxylic acid ethyl ester]	> 6.30
CCCC(=O)N1C[C@H](C)C(NS(=O)(=O)c2ccc(NC(=O)c3ccccc3C)c3ccccc23)[C@@H](C)C1 (racemic) [Compound C-66, (±)-(cistrans)-N-[4-(1-Butyryl-3,5-dimethyl-piperidin-4-ylsulfamoyl)-naphthalen-1-yl]-2-methyl-benzamide]	> 6.30
CCCC(=O)N1CCC(NS(=O)(=O)c2ccc(NC(=O)C3CCCN(C)C3)c3ccccc23)CC1 [Compound D-23, 1-Methyl-piperidine-3-carboxylic acid [4-(1-butyryl-piperidin-4-ylsulfamoyl)-naphthalen-1-yl]-ainde]	> 4.52
Cc1ccccc1C(=O)Nc1ccc(S(=O)(=O)NC2CCN(c3nc4ccccc4o3)CC2)c2ccccc12 [Compound C-60, N-[4-(1-Benzooxazol-2-yl-piperidin-4-ylsulfamoyl)-naphthalen-1-yl]-2-methyl-benzamide]	> 6.30
CCCC(=O)N1CC[C@@H](NS(=O)(=O)c2ccc(NC(=O)c3ccccc3C)c3ccccc23)[C@@H](C)C1 (single isomer, unassigned) [Compound C-141, cis-N-[4-(1-butyryl-3-methyl-piperidin-4-ylsuffamoyl)-naphthalen-1-yl]-2-methyl-benzamide]	> 6.00
O=C(Nc1ccc(S(=O)(=O)NCc2ccncc2)c2ccccc12)c1ccccc1 [Compound A-13, N-{4-[(Pyridin-4-ylmethyl)-sulfamoyl]-naphthalen-1-yl}-benzamide]	> 4.52
Cc1ccccc1C(=O)Nc1ccc(S(=O)(=O)NC2CCNCC2(C)C)c2ccccc12 (racemic) [Compound C-11, (±)-N-[4-(3,3-Dimethyl-piperidin-4-ylsulfamoyl)-naphthalen-1-yl]-2-methyl-benzamide]	> 6.30
CC(=O)N1C[C@@H](C)[C@@H](NS(=O)(=O)c2ccc(NC(=O)c3ccccc3C)c3ccccc23)[C@@H](C)C1 [Compound C-73, (±)-(cis,cis)-N-[4-(1-Acetyl-3,5-dimethyl-piperidin-4-ylsulfamoyl)-naphthalen-1-yl]-2-methyl-benzamide]	> 6.00
CCOC(=O)N1CC[C@H](NS(=O)(=O)c2ccc(N)c3ccccc23)[C@H](C)C1 (racemic) [Compound D-2, (±)-(cis)4-(4-amino-naphthalene-1-sulfonylamino)-3-methyl-piperidine-1-carboxylic acid ethyl ester]	> 4.52
CCCC(=O)N1CC[C@H](NS(=O)(=O)c2ccc(NC(=O)c3ncccc3C)c3ccccc23)[C@H](C)C1 (racemic) [Compound D-4, (±)-(cis)-3-Methyl-pyridine-2-carboxylic acid [4-(1-butyryl-3-methyl-piperidin-4-ylsulfamoyl)-naphthalen-1-yl]-amide]	> 6.30
Cc1ccccc1C(=O)Nc1ccc(S(=O)(=O)N[C@H]2CCN(C(=O)OC(C)C)C[C@H]2C)c2ccccc12 (racemic) [Compound C-13, (±)-cis-3-Methyl-4-[4-(2-methyl-benzoylamino)-naphthalene-1-sulfonylamino]-piperidine-1-carboxylic acid isopropyl ester]	> 6.30
Cc1ccccc1C(=O)Nc1ccc(S(=O)(=O)NC2CCN(C(=O)OC(C)(C)C)CC2(C)C)c2ccccc12 (racemic) [Compound A-19, (±)-3,3-Dimethyl-4-[4-(2-methyl-benzoylamino)-naphthalene-0-sulfonylamino]-piperidine-1-carboxylic acid tert-butyl ester]	> 6.30
Cc1ccccc1C(=O)Nc1ccc(S(=O)(=O)NC2CCN(C(=O)CN3CCCC3)CC2)c2ccccc12 [Compound C-147, 2-Methyl-N-{4-[1-(2-pyrrolidin-1-yl-acetyl)-piperidin-4-ylsulfamoyl]-naphthalen-1-yl}-benzamide]	> 6.30
